Test results published in ChEMBL document CHEMBL5728216, “Cyclopropyl fused thiazine derivatives as beta-secretase inhibitors and methods of use” (2021).

Tests used:
Cathepsin D = Cathepsin D (Homo sapiens, UniProt P07339); assay: In Vitro Enzymatic FRET Assay: Recombinant CatD was expressed in CHO cells. The assay buffer for CatD was 0.05 M citrate pH 3.5, 10% DMSO final, 5 mM CHAPS. The CatD enzyme (9 nM) was pre-incubated for one hour with inhibitors, typically in about 1 uL of DMSO according to a serial dilution, is added thereto. The assays was effectively started by the addition of different FRET substrates (20 nM for CatD) and the combination was incubated for one hour. The FRET assay was terminated with by addition of tris buffer, which raises the pH to neutrality, and the fluorescence was determined. The FRET substrate was a peptide with commercially available fluorophore and quencher, on opposite sides of the CatD cleavage site. The CatD substrate peptide sequence was based on sequence #1 of Table 1 from Gulnik et al., FEBS Lett. 413(2):379-384 (1997). Proteolytic cleavage of the FRET substrate released quenching of fluorescence (CatD excitation 500 nm and emission 580 nm).; format: cell-based
Sequence of Cathepsin D (P07339 65-162 limits assumed): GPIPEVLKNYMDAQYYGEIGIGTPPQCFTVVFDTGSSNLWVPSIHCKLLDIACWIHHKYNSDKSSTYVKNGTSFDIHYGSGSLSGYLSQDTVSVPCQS
Sequence of Cathepsin D (P07339 169-412 limits assumed): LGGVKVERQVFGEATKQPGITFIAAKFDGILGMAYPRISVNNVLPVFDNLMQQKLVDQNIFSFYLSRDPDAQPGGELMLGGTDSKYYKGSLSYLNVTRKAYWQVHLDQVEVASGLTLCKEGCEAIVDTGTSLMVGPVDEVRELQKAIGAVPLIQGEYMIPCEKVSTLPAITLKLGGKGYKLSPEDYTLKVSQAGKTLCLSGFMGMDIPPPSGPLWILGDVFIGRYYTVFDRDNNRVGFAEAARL

Beta-secretase 2 = molecular target: T1, Beta-secretase 2 (Homo sapiens, UniProt Q9Y5Z0); assay: These recombinant proteins were further purified using Ni-NTA affinity chromatography (Qiagen).
T1 sequence (Q9Y5Z0 whole entry): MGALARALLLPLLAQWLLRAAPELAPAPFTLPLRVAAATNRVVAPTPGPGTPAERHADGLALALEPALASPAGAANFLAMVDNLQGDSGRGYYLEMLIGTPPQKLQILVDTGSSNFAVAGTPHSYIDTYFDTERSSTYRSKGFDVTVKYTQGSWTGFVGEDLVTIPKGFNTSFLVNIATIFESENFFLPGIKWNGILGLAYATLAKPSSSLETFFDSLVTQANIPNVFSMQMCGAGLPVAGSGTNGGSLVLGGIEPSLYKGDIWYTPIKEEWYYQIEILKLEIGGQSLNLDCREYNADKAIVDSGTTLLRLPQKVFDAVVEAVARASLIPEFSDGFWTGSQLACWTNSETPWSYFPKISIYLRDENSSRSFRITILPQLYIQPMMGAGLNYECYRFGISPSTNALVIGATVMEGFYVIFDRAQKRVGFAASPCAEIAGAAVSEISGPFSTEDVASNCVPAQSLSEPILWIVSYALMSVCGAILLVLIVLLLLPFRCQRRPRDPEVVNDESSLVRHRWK

Beta-secretase 1 = Beta-secretase 1 (Homo sapiens, UniProt P56817); assay: In Vitro Enzymatic FRET (Fluorescence Resonance Energy Transfer) Assays: The cDNAs for both human recombinant BACE1 and 2 with C-terminal 6-His Tags were cloned into transient protein expression vectors, which were subsequently transfected into mammalian cell lines. These recombinant proteins were further purified using Ni-NTA affinity chromatography (Qiagen). The assay buffer used in these screens was 0.05 M acetate, pH 4.5, 8% DMSO final, 100 μM genapol (which is a nonionic detergent, below its Critical Micelle Concentration). The β-secretase enzyme (0.02 nM for BACE1 and 0.64 nM for BACE2), which was pre-incubated for one hour with the test compound, typically in about 1 uL of DMSO according to a serial dilution, was added thereto. The assay was effectively started by the addition of FRET substrate (50 nM) and the combination was incubated for one hour. The FRET assay was terminated by the addition of tris buffer, which raised the pH to neutrality, and the fluorescence was determined. The FRET substrate was a peptide with commercially available fluorophore and quencher, on opposite sides of the BACE cleavage site. The specific FRET substrate used in this assay was made by Amgen in-house. […]
Sequence of Beta-secretase 1 (P56817 whole entry): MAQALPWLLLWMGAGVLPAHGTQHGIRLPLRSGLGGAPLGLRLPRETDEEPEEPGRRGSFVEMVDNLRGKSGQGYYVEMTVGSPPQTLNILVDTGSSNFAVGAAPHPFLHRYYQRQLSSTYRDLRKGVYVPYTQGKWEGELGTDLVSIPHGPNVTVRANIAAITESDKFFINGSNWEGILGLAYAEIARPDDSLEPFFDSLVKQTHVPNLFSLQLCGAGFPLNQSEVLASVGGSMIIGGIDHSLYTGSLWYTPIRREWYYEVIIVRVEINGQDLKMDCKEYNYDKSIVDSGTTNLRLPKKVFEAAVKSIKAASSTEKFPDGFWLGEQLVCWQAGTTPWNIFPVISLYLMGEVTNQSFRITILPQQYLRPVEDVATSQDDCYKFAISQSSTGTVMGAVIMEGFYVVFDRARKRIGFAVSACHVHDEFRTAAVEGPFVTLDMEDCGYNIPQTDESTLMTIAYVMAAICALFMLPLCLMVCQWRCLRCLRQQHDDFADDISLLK

In the case of `COC[C@]12CC1[C@@](C)(c1cc(C#Cc3ncc(Cl)cc3C)ccc1F)N=C(N)S2` (stereo partly drawn), the IC50 (Cathepsin D) is reported as > 400 µM, the IC50 (Beta-secretase 2) is reported as 0.613 µM and the IC50 (Beta-secretase 1) is reported as 0.129 µM.
